From patent US11013232B2, “Hydrotesting and mothballing composition and method of using combination products for multifunctional water treatment” (priority 2014, dated 2021)

Legend:
[1] = system: General Heterotrophic Bacteria (GHB); experiment: Most Probable Number (MPN) bacterial kill efficacy, GHB; assay type: cell-based, mixed consortia isolated from seawater; settings: first MPN set; for GHB per mL: formulation with ammonium bisulfide, 500 ppm active biocide
Method: (§1) The Most Probably Number technique using a bacterial enumeration technique was performed, as described in NACE International Standard TMP 194-2004. Complex mixed consortia were isolated from seawater and subjected to the chemicals being tested. All chemicals were applied at the same active concentration. Surviving cells were assayed after exposure periods of 1, 7 and 28 days to the numbers compared with a control which received no treatments. The bottle tests were carried out using two mixed consortia—Sulfate Reducing Bacteria (SRB) and General Heterotrophic Bacteria (GHB) that also measured Acid Producing Bacteria (APB) enriched from seawater. Aliquots of the water (1 mL) were inoculated into SRB culture medium and GHB culture medium (Phenol Red Dextrose broth) respectively and sub-cultured twice. The cultures used in the tests were incubated at 30° C. for five days; these were then used to supplement seawater to achieve 10^3 to 10^4 SRB cells per mL. For the trial one control bottle and four test bottles were set up. The chemicals were added to the appropriate test bottles to give the final concentrations of each product as supplied. All chemicals were added so that 500 ppm of active biocide was present in each test. The control bottle contained seawater only with no added chemical.
(§2) At each time point, (one, seven and twenty-eight days), a sample was removed from each test bottle and the control bottle and used to inoculate the MPN vials. Bacterial counts were performed using the triplicate Most Probable Number method (triplicate MPNs). The inoculated MPN vials were incubated at 30° C. for 7 days for GHB and APB and 28 days for SRB. Results have been reported as cells per mL. […]

[2] = system: Acid Producing Bacteria (APB); experiment: Most Probable Number (MPN) bacterial kill efficacy, APB; assay type: cell-based, mixed consortia isolated from seawater; settings: first MPN set; for APB per mL: formulation with ammonium bisulfide, 500 ppm active biocide
Method: as §1, §2

[3] = system: Sulfate Reducing Bacteria (SRB); experiment: Most Probable Number (MPN) bacterial kill efficacy, SRB; assay type: cell-based, mixed consortia isolated from seawater; settings: first MPN set; for SRB per mL: formulation with ammonium bisulfide, 500 ppm active biocide
Method: as §1, §2

[4] = Oxygen scavenging efficacy (real-time orbisphere oxygen sensor); settings: 500 ppm
Method: Oxygen scavenging efficacy was evaluated using a real-time orbisphere oxygen sensor with data logging. The test equipment consisted of a stirrer plate and stirrer bar, a 1 liter test cell, circulation pump, flow chamber, oxygen sensor and data logger. Test work was performed using potable water taken from the mains water supply in The Woodlands, Tex. and then using filtered seawater taken from Galveston, Tex. Testing was performed at 4° C. and 25° C. by wrapping the test cell with a monoethylene glycol circulator chiller jacket. A carbon steel stirrer bar was added to the test cell to replicate turbulence that would be created upon pumping the hydrotest fluid using the metallurgy of a typical pipeline. A non-pulsing circulation pump was set to circulate the test fluid past the oxygen sensor at a rate of 10 mL·min^−1. The oxygen sensor was calibrated prior to every new test run. Each test was run for a duration of 60 minutes with a 10 minute stabilization period prior to the introduction of test chemical. Chemical was injected into the test cell by means of a needle and syringe through a rubber stopper to minimize any oxygen ingress during this stage of the test. Throughout the test, oxygen levels were measured once every minute and the data continuously logged.
All tests of the new formulations (detailed in Table 1) were benchmarked against has 50% ADMAC (specifically […]), 30% ammonium bisulfite and 20% water, herein referenced as Formulation 3 and detailed in Table 1. Furthermore ammonium bisulfite was used as a benchmark and the activity matched up to 30% which is the concentration used in all the formulations. Therefore all testing had the same concentration of oxygen scavenging component with the only variable being the other components of the formulation.
It should be noted that all testing was performed so that the concentration of oxygen scavenger was exactly the same in all tests so the only variables were the counter components in the formulations, this isolating the effects that combining components has upon the oxygen scavenging efficacy of the invented products. Therefore all formulations were added at 500 ppm. […] Furthermore, adding a dye into the formulation as well as the DDAC and DDABC, as is the case with Formulation 1, has no further negative effects on oxygen scavenging efficacy. It should be noted that scavenging in relatively warm seawater is not a very challenging environment to perform this testing in.

CC1(C)C(=O)N(CO)C(=O)N1CO [DMDM hydantoin, 1,3-Bis(hydroxymethyl)-5,5-dimethylimidazoline-2,4-dione]
GHB per mL ([1]; 24 h exposure): 9.5E+03 cells per mL
GHB per mL ([1]; 7 d exposure): 9.5E+05 cells per mL
GHB per mL ([1]; 28 d exposure): 2.5E+05 cells per mL
log reduction of planktonic GHB ([1]; exposure time of 24 hours): 1 log
APB per mL ([2]; 24 h exposure): 4.5E+02 cells per mL
APB per mL ([2]; 7 d exposure): 2.5E+02 cells per mL
APB per mL ([2]; 28 d exposure): 9.5E+04 cells per mL
log reduction of APB numbers ([2]; exposure time of 24 hours): no effect
SRB per mL ([3]; 24 h exposure): 9.5E+04 cells per mL
SRB per mL ([3]; 7 d exposure): 9.5E+02 cells per mL
SRB per mL ([3]; 28 d exposure): 4.5E+06 cells per mL
log reduction of planktonic SRB ([3]; exposure time of 24 hours): no effect

N.O=S(O)O [ABS 30%, ammonium bisulfite]
Oxygen level (ppm O2) ([4]; fresh water, 25° C., time 0 minutes (stabilization before chemical injection)): 8.314 ppm O2
Oxygen level (ppm O2) ([4]; fresh water, 25° C., time 2 minutes (stabilization before chemical injection)): 8.346 ppm O2
Oxygen level (ppm O2) ([4]; fresh water, 25° C., time 4 minutes (stabilization before chemical injection)): 8.310 ppm O2
Oxygen level (ppm O2) ([4]; fresh water, 25° C., time 6 minutes (stabilization before chemical injection)): 8.265 ppm O2
Oxygen level (ppm O2) ([4]; fresh water, 25° C., time 8 minutes (stabilization before chemical injection)): 8.345 ppm O2
Oxygen level (ppm O2) ([4]; fresh water, 25° C., time 10 minutes (end of 10 minute stabilization)): 8.302 ppm O2
Oxygen level (ppm O2) ([4]; fresh water, 25° C., time 12 minutes): 7.612 ppm O2
Oxygen level (ppm O2) ([4]; fresh water, 25° C., time 14 minutes): 6.674 ppm O2
Oxygen level (ppm O2) ([4]; fresh water, 25° C., time 16 minutes): 5.585 ppm O2
Oxygen level (ppm O2) ([4]; fresh water, 25° C., time 18 minutes): 4.732 ppm O2
Oxygen level (ppm O2) ([4]; fresh water, 25° C., time 20 minutes): 4.115 ppm O2
Oxygen level (ppm O2) ([4]; fresh water, 25° C., time 22 minutes): 3.765 ppm O2
Oxygen level (ppm O2) ([4]; fresh water, 25° C., time 24 minutes): 3.195 ppm O2
Oxygen level (ppm O2) ([4]; fresh water, 25° C., time 26 minutes): 3.027 ppm O2
Oxygen level (ppm O2) ([4]; fresh water, 25° C., time 28 minutes): 2.546 ppm O2
Oxygen level (ppm O2) ([4]; fresh water, 25° C., time 30 minutes): 1.863 ppm O2
Oxygen level (ppm O2) ([4]; fresh water, 25° C., time 32 minutes): 1.516 ppm O2
Oxygen level (ppm O2) ([4]; fresh water, 25° C., time 34 minutes): 1.173 ppm O2
Oxygen level (ppm O2) ([4]; fresh water, 25° C., time 36 minutes): 0.857 ppm O2
Oxygen level (ppm O2) ([4]; fresh water, 25° C., time 38 minutes): 0.654 ppm O2
Oxygen level (ppm O2) ([4]; fresh water, 25° C., time 40 minutes): 0.436 ppm O2
Oxygen level (ppm O2) ([4]; fresh water, 25° C., time 42 minutes): 0.349 ppm O2
Oxygen level (ppm O2) ([4]; fresh water, 25° C., time 44 minutes): 0.215 ppm O2
Oxygen level (ppm O2) ([4]; fresh water, 25° C., time 46 minutes): 0.134 ppm O2
Oxygen level (ppm O2) ([4]; fresh water, 25° C., time 48 minutes): 0.119 ppm O2
Oxygen level (ppm O2) ([4]; fresh water, 25° C., time 50 minutes): 0.096 ppm O2
Oxygen level (ppm O2) ([4]; fresh water, 25° C., time 52 minutes): 0.087 ppm O2
Oxygen level (ppm O2) ([4]; fresh water, 25° C., time 54 minutes): 0.063 ppm O2
Oxygen level (ppm O2) ([4]; fresh water, 25° C., time 56 minutes): 0.055 ppm O2
Oxygen level (ppm O2) ([4]; fresh water, 25° C., time 58 minutes): 0.050 ppm O2
Oxygen level (ppm O2) ([4]; fresh water, 25° C., time 60 minutes): 0.480 ppm O2
Oxygen level (ppm O2) ([4]; seawater, 4° C., time 0 minutes (stabilization before chemical injection)): 7.554 ppm O2
Oxygen level (ppm O2) ([4]; seawater, 4° C., time 2 minutes (stabilization before chemical injection)): 7.452 ppm O2
Oxygen level (ppm O2) ([4]; seawater, 4° C., time 4 minutes (stabilization before chemical injection)): 7.357 ppm O2
Oxygen level (ppm O2) ([4]; seawater, 4° C., time 6 minutes (stabilization before chemical injection)): 7.268 ppm O2
Oxygen level (ppm O2) ([4]; seawater, 4° C., time 8 minutes (stabilization before chemical injection)): 7.121 ppm O2
Oxygen level (ppm O2) ([4]; seawater, 4° C., time 10 minutes (end of 10 minute stabilization)): 6.997 ppm O2
Oxygen level (ppm O2) ([4]; seawater, 4° C., time 12 minutes): 2.125 ppm O2
Oxygen level (ppm O2) ([4]; seawater, 4° C., time 14 minutes): 0.454 ppm O2
Oxygen level (ppm O2) ([4]; seawater, 4° C., time 16 minutes): 0.269 ppm O2
Oxygen level (ppm O2) ([4]; seawater, 4° C., time 18 minutes): 0.064 ppm O2
Oxygen level (ppm O2) ([4]; seawater, 4° C., time 20 minutes): 0.047 ppm O2
Oxygen level (ppm O2) ([4]; seawater, 4° C., time 22 minutes): 0.029 ppm O2
Oxygen level (ppm O2) ([4]; seawater, 4° C., time 24 minutes): 0.009 ppm O2
Oxygen level (ppm O2) ([4]; seawater, 4° C., time 26 minutes): 0.003 ppm O2
Oxygen level (ppm O2) ([4]; seawater, 4° C., time 28 minutes): 0.002 ppm O2
Oxygen level (ppm O2) ([4]; seawater, 25° C., time 0 minutes (stabilization before chemical injection)): 7.112 ppm O2
Oxygen level (ppm O2) ([4]; seawater, 25° C., time 2 minutes (stabilization before chemical injection)): 7.081 ppm O2
Oxygen level (ppm O2) ([4]; seawater, 25° C., time 4 minutes (stabilization before chemical injection)): 7.029 ppm O2
Oxygen level (ppm O2) ([4]; seawater, 25° C., time 6 minutes (stabilization before chemical injection)): 7.084 ppm O2
Oxygen level (ppm O2) ([4]; seawater, 25° C., time 8 minutes (stabilization before chemical injection)): 7.066 ppm O2
Oxygen level (ppm O2) ([4]; seawater, 25° C., time 10 minutes (end of 10 minute stabilization)): 7.061 ppm O2
Oxygen level (ppm O2) ([4]; seawater, 25° C., time 12 minutes): 0.052 ppm O2
Oxygen level (ppm O2) ([4]; seawater, 25° C., time 14 minutes): 0.013 ppm O2
Oxygen level (ppm O2) ([4]; seawater, 25° C., time 16 minutes): 0.010 ppm O2
Oxygen level (ppm O2) ([4]; seawater, 25° C., time 18 minutes): 0.009 ppm O2
Oxygen level (ppm O2) ([4]; seawater, 25° C., time 20 minutes): 0.008 ppm O2
Oxygen level (ppm O2) ([4]; seawater, 25° C., time 22 minutes): 0.007 ppm O2
Oxygen level (ppm O2) ([4]; seawater, 25° C., time 24 minutes): 0.006 ppm O2
Oxygen level (ppm O2) ([4]; seawater, 25° C., time 26 minutes): 0.005 ppm O2
Oxygen level (ppm O2) ([4]; seawater, 25° C., time 28 minutes): 0.004 ppm O2
